Among the data in PubChem BioAssay (NCI) are TGI and GI50 values, retold here.

Each structure is given as a SMILES string.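 Compound exposure: 48 hours, 5 concentrations, 96-well plates. GI50 = concentration required for 50% inhibition of growth. The concentration for full growth arrest is given as TGI.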 Where a SMILES comes first, the peptide text is derived from it. The star is where a group is joined. Palmitoyl = CCCCCCCCCCCCCCCC(=O)*

Among the test systems are PC-3 prostate; LOX IMVI melanoma; BT-549 breast; NCI-H522 lung; MDA-N; OVCAR-8 ovarian; 786-0 renal; HS 578T breast; SK-OV-3 ovarian; XF 498 CNS; DMS 273 small cell lung; DLD-1 colon; SNB-78 CNS; LXFL 529 NSCLC.
Common to all, as to experiment: NCI anticancer screen, dose series, 48 h

As for `O[C@@]12Cc3c([nH]c4ccccc34)[C@@H]3Oc4cccc5c4[C@@]31CCN(CC1CC1)[C@@H]2C5`, the TGI with PC-3 prostate worked out at 30.7 µM; with LOX IMVI melanoma it was 32.9 µM; in the assay with BT-549 breast it was 35.3 µM; in the assay with NCI-H522 lung, 38 µM; with MDA-N, 33.9 µM; with OVCAR-8 ovarian, 29 µM.
With `CCOC(=O)c1c(C)n(-c2ccc(Cl)cc2)c2c1cc(O)c1[nH]c3c(c12)CCCC3`, the TGI was > 100 µM in the assay on PC-3 prostate; > 100 µM in the assay with 786-0 renal; 72.4 µM with HS 578T breast; > 100 µM in the assay on LOX IMVI melanoma; > 100 µM in the assay with BT-549 breast; 60.4 µM in the assay on NCI-H522 lung. The TGI in the assay on MDA-N, in the assay with OVCAR-8 ovarian and in the assay with SK-OV-3 ovarian was > 100 µM each time.
For `COC(=O)C1=C(OC(=O)/C(=C/c2ccc(Cl)cc2)c2ccc(Cl)cc2)C(C(=O)OC)[C@]2(O)[C@@H](C(=O)OC)[C@H]1C[C@@H](c1ccccc1)[C@@H]2C(=O)OC` (stereo not given in full), the TGI in the assay with PC-3 prostate, with LOX IMVI melanoma, in the assay on BT-549 breast, with NCI-H522 lung, in the assay with MDA-N and in the assay with OVCAR-8 ovarian was > 100 µM throughout. For the same molecule, the TGI in the assay with SK-OV-3 ovarian is > 100 µM.
`c1cnc2c(c1)ccc1cccnc12`: the TGI with PC-3 prostate was > 100 µM; in the assay with 786-0 renal, > 100 µM; in the assay on HS 578T breast it was 97.8 µM; in the assay with LOX IMVI melanoma, > 100 µM; with BT-549 breast it was > 100 µM; in the assay on NCI-H522 lung it was > 100 µM. Moreover, the TGI with MDA-N, in the assay with OVCAR-8 ovarian and with SK-OV-3 ovarian was > 100 µM throughout.
Turning to `COc1cc(C(C)O)c[n+](Cc2ccccc2)c1` (stereo not given), the TGI in the assay with XF 498 CNS is > 31.6 µM; with DMS 273 small cell lung it was > 100 µM; in the assay with DLD-1 colon, > 100 µM; in the assay with SNB-78 CNS, > 100 µM; with 786-0 renal, > 100 µM; in the assay with LOX IMVI melanoma, > 100 µM. Further, the TGI with NCI-H522 lung is > 100 µM; with OVCAR-8 ovarian it was > 31.6 µM; in the assay on SK-OV-3 ovarian, > 100 µM; in the assay on LXFL 529 NSCLC, > 100 µM.
Consider `C/C(=N/N=C(\[O-])c1ccncc1)C(F)(F)F.C/C(=N\N=C(/[O-])c1ccncc1)C(F)(F)F.[Ni+2]`, for which the figures for the GI50 with LOX IMVI melanoma, with BT-549 breast and in the assay on SK-OV-3 ovarian were > 1 µM, > 1 µM and 0.00156 µM, respectively. In addition, the TGI in the assay with LOX IMVI melanoma was > 1 µM; in the assay on BT-549 breast it was > 1 µM; in the assay with SK-OV-3 ovarian it was 0.005 µM.
With `CN1C(c2ccccc2)CC(=O)C(N)C1c1ccccc1` (stereo not given), the TGI is 28.1 µM with XF 498 CNS; > 61.7 µM with DMS 273 small cell lung; > 100 µM in the assay with DLD-1 colon; 69.7 µM with SNB-78 CNS; 97.7 µM with 786-0 renal; 32.1 µM in the assay on LOX IMVI melanoma. Also, the TGI in the assay on NCI-H522 lung was 33.7 µM; with OVCAR-8 ovarian it was > 81.2 µM; with SK-OV-3 ovarian it was > 100 µM; with LXFL 529 NSCLC, 37.5 µM.
With `Nc1[nH]c(=O)nc2c1cnn2C1CCCCO1` (stereo not given), the TGI with XF 498 CNS, in the assay with DMS 273 small cell lung, in the assay with DLD-1 colon, in the assay on SNB-78 CNS, with LOX IMVI melanoma and in the assay with OVCAR-8 ovarian was > 100 µM each time. The TGI with LXFL 529 NSCLC is > 100 µM.
In the case of `c1ccc(-c2nc(N3CCNCC3)c3oc(-c4ccccc4)nc3n2)cc1`, the figures for the GI50 with HS 578T breast, in the assay on NCI-H522 lung and with SK-OV-3 ovarian were 1.88 µM, 1.99 µM and 1.88 µM, respectively. For the same molecule, the TGI in the assay on HS 578T breast came to 4.07 µM; in the assay on NCI-H522 lung it was 4.51 µM; in the assay on SK-OV-3 ovarian, 3.8 µM.
For the molecule `CON(C)c1nc(N(C)OC)nc(N(C)OC)n1`, the TGI with PC-3 prostate, in the assay on HS 578T breast, with LOX IMVI melanoma, in the assay with NCI-H522 lung, with MDA-N and with OVCAR-8 ovarian was > 10 µM each time. Moreover, the TGI in the assay on SK-OV-3 ovarian is > 10 µM.
On to `CCCCCCCCCCCCCCCC(=O)N1CCCC1C(=O)NCC(=O)NC(Cc1ccccc1)C(=O)NC(C)C(=O)NC(CO)C(=O)NC(Cc1ccc(O)cc1)C(=O)NC(CCCCN)C(=O)NC(CC(C)C)C(=O)NC(CCCN=C(N)N)C(=O)N1CCCC1C(=O)NCC(N)=O` (stereo not given) (Palmitoyl-PGFASYKLRPG-NH2; configuration not given here), for which the GI50 is 39.7 µM in the assay on HS 578T breast; 21.9 µM with BT-549 breast; 20.2 µM in the assay with NCI-H522 lung; 24 µM in the assay on OVCAR-8 ovarian; 12.8 µM with SK-OV-3 ovarian. In addition, the TGI was > 100 µM in the assay with HS 578T breast; 45.3 µM with BT-549 breast; 46.9 µM in the assay with NCI-H522 lung; 51.9 µM in the assay with OVCAR-8 ovarian; 28.7 µM with SK-OV-3 ovarian.
As to `Cc1c(-c2ccccc2)[nH]c2cc(Cl)ccc2c1=O`, the TGI in the assay on HS 578T breast was 65.6 µM; in the assay with LOX IMVI melanoma it was > 100 µM; in the assay on BT-549 breast it was > 100 µM; in the assay on MDA-N it was > 100 µM; with SK-OV-3 ovarian it was > 100 µM.
As for `Nc1nc(Nc2ccccc2)c2[nH]cnc2n1`, the TGI with PC-3 prostate, in the assay with 786-0 renal, in the assay with LOX IMVI melanoma, in the assay with NCI-H522 lung, in the assay with MDA-N and in the assay with OVCAR-8 ovarian was > 100 µM each time. Also, in the assay on SK-OV-3 ovarian, the TGI was > 100 µM.
As for `CC1=C(O)C2=C(C(=O)C1=O)[C@@H](C)CC[C@@H]2[C@@H](C)C/C=C/C(C)(C)O`, the TGI in the assay on PC-3 prostate is > 100 µM; with 786-0 renal, > 100 µM; in the assay on HS 578T breast it was > 100 µM; with LOX IMVI melanoma it was > 100 µM; in the assay on NCI-H522 lung, 58.8 µM; in the assay with MDA-N it was > 100 µM. Moreover, the TGI with OVCAR-8 ovarian and in the assay on SK-OV-3 ovarian was > 100 µM throughout.
Turning to `OCCN(CCO)c1ncnc2nc[nH]c12`, the TGI in the assay on PC-3 prostate, with 786-0 renal, in the assay on HS 578T breast, with LOX IMVI melanoma, in the assay on BT-549 breast and with NCI-H522 lung was > 100 µM each time. The TGI in the assay on MDA-N, with OVCAR-8 ovarian and in the assay with SK-OV-3 ovarian was > 100 µM each time.
In the case of `CCN1CCC(O)(/C=C/c2ccccc2C)C(C(=O)/C=C/c2ccccc2C)C1` (stereo not given), the TGI in the assay on PC-3 prostate is 4.05 µM; with HS 578T breast it was 16.2 µM; in the assay on LOX IMVI melanoma, 3.38 µM; in the assay on BT-549 breast, 6.44 µM; with MDA-N, 8.88 µM; in the assay on OVCAR-8 ovarian, 7.85 µM. Also, in the assay with SK-OV-3 ovarian, the TGI came to 21 µM.
Consider `CC(N)Cc1ccc(Cl)c(Cl)c1` (stereo not given), for which the TGI in the assay on XF 498 CNS is 23.7 µM; with DMS 273 small cell lung, > 71.9 µM; in the assay with DLD-1 colon it was > 100 µM; with SNB-78 CNS it was > 100 µM; in the assay on 786-0 renal, > 100 µM; with LOX IMVI melanoma, > 68.5 µM. The TGI with NCI-H522 lung was > 66.9 µM; in the assay with OVCAR-8 ovarian, > 100 µM; with SK-OV-3 ovarian, > 100 µM; with LXFL 529 NSCLC, 34.9 µM.
Take `Nc1nc(O)c2ncn([C@H]3CC[C@@H](CO)O3)c2n1`: the TGI with PC-3 prostate, in the assay on HS 578T breast, in the assay on LOX IMVI melanoma, in the assay on BT-549 breast, with MDA-N and in the assay on OVCAR-8 ovarian was > 100 µM in each case. Also, the TGI in the assay with SK-OV-3 ovarian was > 100 µM.
